Measured values as given in patent EP2698155A1, “Pharmaceutical unit dosage form comprising 4-phenylbutyric acid” (priority 2012, dated 2014).

Test system: adenocarcinoma of the prostate
Test: Treatment of human patients with prostate cancer (case reports)
Assay type: in vivo
Conditions: general statement
Method: Diseases that can be beneficially influenced by the present dosage form include in particular benign prostate hyperplasy, cancer, leukemias, cystic fibrosis, AIDS, kidney and liver diseases, thalassemia and urea cycle disorders. For example, the treatment of an adenocarcinoma of the prostate can be carried out by administering twice daily, e.g. in the morning and evening, a pharmaceutical tablet formulation containing 250 mg of sodium 4-phenylbutyrate. […] Treatment may be continued for several month or years until a satisfactory effect is observed or the patient is total free of the disease.
Following are descriptions of treatments and test results obtained from human patients.
Because of progressive bone pain they underwent bilateral orchiectomy in February 1996. They became free of pain until November 1998 when they again suffered bone pain mainly in their back. They were than treated orally twice daily with 250 mg of sodium phenylbutyrate retard tablets according to Example 1. Four weeks later they were free of pain. They stayed on this medication until June 2001 without any other symptoms of the prostate carcinoma. The PSA and the alkaline phosphatase were always within normal limits.
They stay now in complete unmaintained remission for 12 months.
This patient presented in March 1997 with a pathological fracture of the 8th thoracic vertebra caused by metastatic destruction. […]

## O=C([O-])CCCc1ccccc1.[Na+] [sodium 4-phenylbutyrate]
Adenocarcinoma of the prostate, tablet with 250 mg twice daily, after treatment of about one month
  therapeutic effect (pain): pain disappears
Over a long period of treatment
  side effects: no side effects
